The values that follow come from ChEMBL document CHEMBL5291721, “A preclinical secondary pharmacology resource illuminates target-adverse drug reaction associations of marketed drugs” (Nat Commun, 2023).

A value given as a limit tells only on which side of the number the result lay.

Some targets named below: D(1A) dopamine receptor (Homo sapiens, UniProt P21728); Histamine H3 receptor (Homo sapiens, UniProt Q9Y5N1); Mu-type opioid receptor (Homo sapiens, UniProt P35372).
The target of the next assay is Acetylcholinesterase (Homo sapiens, UniProt P22303). It is filed as functional.
Sequence of Acetylcholinesterase (P22303 whole entry): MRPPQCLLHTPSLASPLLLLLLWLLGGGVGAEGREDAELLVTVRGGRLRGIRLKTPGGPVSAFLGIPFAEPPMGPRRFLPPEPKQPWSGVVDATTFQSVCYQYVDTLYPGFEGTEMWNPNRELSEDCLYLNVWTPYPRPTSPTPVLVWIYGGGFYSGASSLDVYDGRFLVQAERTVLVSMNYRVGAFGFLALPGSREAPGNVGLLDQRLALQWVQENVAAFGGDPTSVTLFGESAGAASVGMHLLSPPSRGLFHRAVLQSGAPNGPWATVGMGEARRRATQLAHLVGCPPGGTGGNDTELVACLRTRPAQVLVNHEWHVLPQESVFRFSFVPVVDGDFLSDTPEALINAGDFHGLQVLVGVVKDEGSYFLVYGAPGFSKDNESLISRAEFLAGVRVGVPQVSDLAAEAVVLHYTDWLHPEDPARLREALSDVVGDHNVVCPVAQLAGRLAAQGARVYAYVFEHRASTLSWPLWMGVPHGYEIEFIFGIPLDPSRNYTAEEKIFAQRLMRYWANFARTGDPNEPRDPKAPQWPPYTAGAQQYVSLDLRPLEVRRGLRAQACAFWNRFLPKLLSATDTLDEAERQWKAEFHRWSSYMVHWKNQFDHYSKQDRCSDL
Assay [1] deals with T1, Alpha-1A adrenergic receptor (Homo sapiens, UniProt P35348).
T1 sequence (P35348 whole entry): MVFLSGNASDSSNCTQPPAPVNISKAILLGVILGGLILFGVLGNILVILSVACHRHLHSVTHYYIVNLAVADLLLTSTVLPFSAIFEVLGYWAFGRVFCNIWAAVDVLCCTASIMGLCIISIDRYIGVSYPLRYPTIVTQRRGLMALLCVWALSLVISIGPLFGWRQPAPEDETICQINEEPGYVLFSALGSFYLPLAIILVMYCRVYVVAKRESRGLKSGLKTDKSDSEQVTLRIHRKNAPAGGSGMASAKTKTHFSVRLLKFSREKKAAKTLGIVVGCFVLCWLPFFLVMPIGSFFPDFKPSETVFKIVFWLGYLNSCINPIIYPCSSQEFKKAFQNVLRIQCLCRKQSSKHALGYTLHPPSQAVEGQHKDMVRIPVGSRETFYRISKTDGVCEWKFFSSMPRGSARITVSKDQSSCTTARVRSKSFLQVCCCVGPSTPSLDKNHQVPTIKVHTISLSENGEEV
It is filed as functional, cell-based.

Assay [2] deals with T1, Alpha-1A adrenergic receptor. It is filed as functional, cell-based. The source holds these as a separate data set.
For assay [3], the target named is T2, 5-hydroxytryptamine receptor 1A (Homo sapiens, UniProt P08908).
T2 sequence (P08908 whole entry): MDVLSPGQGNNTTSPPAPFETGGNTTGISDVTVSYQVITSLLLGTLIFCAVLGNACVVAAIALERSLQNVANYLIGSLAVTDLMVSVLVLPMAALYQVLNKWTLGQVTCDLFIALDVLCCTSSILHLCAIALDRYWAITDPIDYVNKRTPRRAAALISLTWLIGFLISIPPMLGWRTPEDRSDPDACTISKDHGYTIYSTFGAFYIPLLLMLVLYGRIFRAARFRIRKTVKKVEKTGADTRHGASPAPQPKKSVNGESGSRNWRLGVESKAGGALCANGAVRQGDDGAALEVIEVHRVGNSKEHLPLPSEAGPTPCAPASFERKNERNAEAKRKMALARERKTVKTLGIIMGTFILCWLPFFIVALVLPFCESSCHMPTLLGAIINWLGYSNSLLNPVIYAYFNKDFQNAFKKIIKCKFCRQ

Assay [4] concerns the target T3, Amine oxidase [flavin-containing] A (Homo sapiens, UniProt P21397).
T3 sequence (P21397 whole entry): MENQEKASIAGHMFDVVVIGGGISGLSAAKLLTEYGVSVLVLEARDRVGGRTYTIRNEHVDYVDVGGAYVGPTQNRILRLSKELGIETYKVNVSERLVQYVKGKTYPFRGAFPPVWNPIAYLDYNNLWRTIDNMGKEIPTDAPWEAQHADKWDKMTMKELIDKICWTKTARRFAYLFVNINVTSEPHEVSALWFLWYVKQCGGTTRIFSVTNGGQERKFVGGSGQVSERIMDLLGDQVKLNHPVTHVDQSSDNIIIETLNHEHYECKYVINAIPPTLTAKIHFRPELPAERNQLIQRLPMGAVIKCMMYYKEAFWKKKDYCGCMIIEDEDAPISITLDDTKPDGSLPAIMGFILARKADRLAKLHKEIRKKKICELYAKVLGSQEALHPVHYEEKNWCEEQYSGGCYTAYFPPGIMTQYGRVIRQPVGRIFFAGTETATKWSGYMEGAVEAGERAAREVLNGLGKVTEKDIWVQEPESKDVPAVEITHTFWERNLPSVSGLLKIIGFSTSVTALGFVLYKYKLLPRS
It is filed as functional.

Assay [5] addresses Prostaglandin G/H synthase 1 (Homo sapiens, UniProt P23219). Format: functional.
Assay [6] concerns the target Sodium-dependent noradrenaline transporter (Homo sapiens, UniProt P23975).
Assay [7] deals with Sodium-dependent dopamine transporter (Homo sapiens, UniProt Q01959).
Sequence of Sodium-dependent dopamine transporter (Q01959 whole entry): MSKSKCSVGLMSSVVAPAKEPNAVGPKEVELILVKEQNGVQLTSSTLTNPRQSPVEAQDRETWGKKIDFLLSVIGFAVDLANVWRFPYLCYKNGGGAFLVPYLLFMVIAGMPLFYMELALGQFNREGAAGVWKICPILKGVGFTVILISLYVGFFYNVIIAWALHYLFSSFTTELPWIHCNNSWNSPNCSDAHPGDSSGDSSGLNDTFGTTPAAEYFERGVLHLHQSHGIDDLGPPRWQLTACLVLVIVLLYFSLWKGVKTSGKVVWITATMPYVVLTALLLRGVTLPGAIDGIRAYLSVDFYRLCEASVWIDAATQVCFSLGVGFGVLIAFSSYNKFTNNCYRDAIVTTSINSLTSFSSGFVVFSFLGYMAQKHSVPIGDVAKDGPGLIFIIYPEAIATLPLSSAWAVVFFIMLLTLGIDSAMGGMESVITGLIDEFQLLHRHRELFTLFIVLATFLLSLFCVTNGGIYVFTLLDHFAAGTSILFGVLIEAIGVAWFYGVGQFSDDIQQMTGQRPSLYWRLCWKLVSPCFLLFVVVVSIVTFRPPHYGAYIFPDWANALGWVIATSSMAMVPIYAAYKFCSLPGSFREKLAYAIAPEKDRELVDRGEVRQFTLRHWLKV
Another assay has as its target T4, Thromboxane A2 receptor (Homo sapiens, UniProt P21731).
T4 sequence (P21731 whole entry): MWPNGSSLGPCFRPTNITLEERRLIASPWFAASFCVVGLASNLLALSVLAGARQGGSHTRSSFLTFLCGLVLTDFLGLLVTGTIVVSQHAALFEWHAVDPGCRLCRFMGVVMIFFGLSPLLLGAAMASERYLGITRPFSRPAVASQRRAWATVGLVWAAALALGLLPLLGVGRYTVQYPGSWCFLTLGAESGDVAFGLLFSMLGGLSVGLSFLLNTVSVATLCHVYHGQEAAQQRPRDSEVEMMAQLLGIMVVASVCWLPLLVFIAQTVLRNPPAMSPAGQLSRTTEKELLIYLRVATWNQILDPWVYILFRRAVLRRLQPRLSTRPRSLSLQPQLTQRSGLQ
Format: functional, cell-based.

The target in another assay is T5, Estrogen receptor (Homo sapiens, UniProt P03372).
T5 sequence (P03372 whole entry): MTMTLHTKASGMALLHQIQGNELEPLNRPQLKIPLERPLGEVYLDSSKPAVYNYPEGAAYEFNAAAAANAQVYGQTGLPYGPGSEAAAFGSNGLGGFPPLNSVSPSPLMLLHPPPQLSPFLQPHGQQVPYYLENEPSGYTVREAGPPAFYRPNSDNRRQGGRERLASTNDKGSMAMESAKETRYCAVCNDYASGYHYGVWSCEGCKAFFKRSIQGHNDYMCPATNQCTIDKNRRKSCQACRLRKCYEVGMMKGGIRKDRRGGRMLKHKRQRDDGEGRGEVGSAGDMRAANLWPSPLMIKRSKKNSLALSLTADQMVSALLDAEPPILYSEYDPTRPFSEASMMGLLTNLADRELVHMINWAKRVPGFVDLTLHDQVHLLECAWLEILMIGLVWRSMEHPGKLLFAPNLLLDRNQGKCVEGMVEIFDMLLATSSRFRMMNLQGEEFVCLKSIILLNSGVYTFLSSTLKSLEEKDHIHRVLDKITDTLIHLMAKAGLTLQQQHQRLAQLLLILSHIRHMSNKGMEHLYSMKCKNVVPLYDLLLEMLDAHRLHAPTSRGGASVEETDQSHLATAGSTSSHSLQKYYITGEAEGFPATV
Note: assay procedure not described here.

Sequence of Prostaglandin G/H synthase 1 (P23219 whole entry): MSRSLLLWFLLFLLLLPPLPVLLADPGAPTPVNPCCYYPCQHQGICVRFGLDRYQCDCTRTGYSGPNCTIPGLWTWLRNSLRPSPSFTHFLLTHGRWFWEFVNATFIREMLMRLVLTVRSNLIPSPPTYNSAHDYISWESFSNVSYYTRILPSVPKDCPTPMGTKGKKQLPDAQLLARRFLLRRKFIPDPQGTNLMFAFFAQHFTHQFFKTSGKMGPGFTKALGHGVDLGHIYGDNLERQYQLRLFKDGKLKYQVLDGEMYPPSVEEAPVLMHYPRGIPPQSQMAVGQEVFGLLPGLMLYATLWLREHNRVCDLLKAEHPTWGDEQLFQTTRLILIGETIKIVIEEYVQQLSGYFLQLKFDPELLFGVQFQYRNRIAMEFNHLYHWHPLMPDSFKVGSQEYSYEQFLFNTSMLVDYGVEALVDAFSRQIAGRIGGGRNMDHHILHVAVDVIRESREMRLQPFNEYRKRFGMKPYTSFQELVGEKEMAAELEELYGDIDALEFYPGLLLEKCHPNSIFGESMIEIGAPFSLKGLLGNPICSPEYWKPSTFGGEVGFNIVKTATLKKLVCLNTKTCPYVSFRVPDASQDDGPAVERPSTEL
Sequence of Sodium-dependent noradrenaline transporter (P23975 whole entry): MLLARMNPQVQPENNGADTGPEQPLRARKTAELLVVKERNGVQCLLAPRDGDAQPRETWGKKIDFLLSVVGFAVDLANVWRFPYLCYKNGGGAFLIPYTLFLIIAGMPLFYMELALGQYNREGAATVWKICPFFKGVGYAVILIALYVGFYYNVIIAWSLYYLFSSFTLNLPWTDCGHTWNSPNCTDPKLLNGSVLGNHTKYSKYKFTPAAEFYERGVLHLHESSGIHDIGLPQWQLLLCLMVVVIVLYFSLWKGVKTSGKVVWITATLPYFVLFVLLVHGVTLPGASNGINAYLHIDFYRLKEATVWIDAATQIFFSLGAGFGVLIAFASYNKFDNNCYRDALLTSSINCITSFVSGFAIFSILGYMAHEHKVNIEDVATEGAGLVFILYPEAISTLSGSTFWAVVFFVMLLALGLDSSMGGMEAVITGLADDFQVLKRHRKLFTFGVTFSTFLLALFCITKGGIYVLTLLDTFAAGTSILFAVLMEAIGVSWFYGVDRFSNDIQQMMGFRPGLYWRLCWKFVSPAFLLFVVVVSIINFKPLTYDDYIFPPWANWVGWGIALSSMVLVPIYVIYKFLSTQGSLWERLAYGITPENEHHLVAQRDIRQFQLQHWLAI
Sequence of Mu-type opioid receptor (P35372 whole entry): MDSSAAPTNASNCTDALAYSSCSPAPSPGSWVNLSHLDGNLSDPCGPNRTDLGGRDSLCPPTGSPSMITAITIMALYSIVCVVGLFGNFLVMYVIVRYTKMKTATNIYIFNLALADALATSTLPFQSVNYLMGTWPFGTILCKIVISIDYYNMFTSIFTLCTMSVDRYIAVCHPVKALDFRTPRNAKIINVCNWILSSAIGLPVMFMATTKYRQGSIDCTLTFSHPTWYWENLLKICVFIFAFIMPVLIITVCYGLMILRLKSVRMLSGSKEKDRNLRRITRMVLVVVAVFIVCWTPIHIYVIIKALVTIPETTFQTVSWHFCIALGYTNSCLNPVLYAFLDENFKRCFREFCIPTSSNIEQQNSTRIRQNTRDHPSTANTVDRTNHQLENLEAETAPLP
Sequence of D(1A) dopamine receptor (P21728 whole entry): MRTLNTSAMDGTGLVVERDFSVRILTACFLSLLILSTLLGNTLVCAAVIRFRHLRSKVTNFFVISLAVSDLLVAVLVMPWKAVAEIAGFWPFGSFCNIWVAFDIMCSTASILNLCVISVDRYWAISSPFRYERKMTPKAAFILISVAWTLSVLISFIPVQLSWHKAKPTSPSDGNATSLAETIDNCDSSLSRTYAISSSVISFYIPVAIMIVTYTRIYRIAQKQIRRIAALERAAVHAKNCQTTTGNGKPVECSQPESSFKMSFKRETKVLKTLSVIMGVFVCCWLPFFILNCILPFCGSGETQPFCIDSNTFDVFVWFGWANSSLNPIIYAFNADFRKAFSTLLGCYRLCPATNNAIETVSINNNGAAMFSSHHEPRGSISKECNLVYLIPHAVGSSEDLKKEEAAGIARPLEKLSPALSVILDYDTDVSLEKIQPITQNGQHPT
Sequence of Histamine H3 receptor (Q9Y5N1 whole entry): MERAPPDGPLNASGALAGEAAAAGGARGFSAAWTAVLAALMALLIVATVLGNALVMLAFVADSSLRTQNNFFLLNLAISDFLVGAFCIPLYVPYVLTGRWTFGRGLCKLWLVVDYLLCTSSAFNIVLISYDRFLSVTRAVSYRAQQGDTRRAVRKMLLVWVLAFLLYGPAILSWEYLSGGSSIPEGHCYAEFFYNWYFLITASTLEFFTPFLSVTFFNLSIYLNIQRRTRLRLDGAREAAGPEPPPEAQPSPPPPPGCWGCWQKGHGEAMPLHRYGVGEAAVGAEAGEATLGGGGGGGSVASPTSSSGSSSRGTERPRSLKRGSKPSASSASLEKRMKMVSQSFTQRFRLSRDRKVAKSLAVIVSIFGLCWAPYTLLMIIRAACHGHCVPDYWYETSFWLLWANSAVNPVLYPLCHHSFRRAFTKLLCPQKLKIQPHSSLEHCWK

Usually AC50 stands for the midpoint of the concentration-response curve, whichever way the signal moves. The low end stands for greater potency, the high end for weaker potency. On to `CC1(C)C[C@@H]1C(=O)N/C(=C\CCCCSC[C@H](N)C(=O)O)C(=O)O` [CILASTATIN], for which the AC50 (on Acetylcholinesterase; in assay [1]; in assay [2]; on D(1A) dopamine receptor; at Histamine H3 receptor; in [3]) was over 30 µM each time. Besides, the AC50 (in assay [4]; at Mu-type opioid receptor; in assay [5]; in assay [6]; in assay [7]; at Thromboxane A2 receptor) was over 30 µM each time.

In the case of `CC(=O)Nc1ccc(/C=N/NC(N)=S)cc1` [AMITHIOZONE], the AC50 is over 30 µM at Acetylcholinesterase; over 30 µM on D(1A) dopamine receptor; over 30 µM at Histamine H3 receptor; over 30 µM in [3]; over 10 µM in [4]; over 30 µM at Mu-type opioid receptor. Moreover, the AC50 (in assay [5]; in assay [6]; in assay [7]; on Thromboxane A2 receptor) was over 30 µM throughout.

As to `COc1ccc(C(=O)c2ccccc2)c(O)c1` [OXYBENZONE], the AC50 at Acetylcholinesterase is over 30 µM; in assay [1] it was over 30 µM; in assay [2], over 10 µM; at D(1A) dopamine receptor it was over 30 µM; at Estrogen receptor it was over 30 µM; on Histamine H3 receptor it was over 30 µM. In addition, the AC50 is over 30 µM in assay [3]; over 30 µM in assay [4]; over 30 µM at Mu-type opioid receptor; over 30 µM in assay [5]; 11.6 µM in [6]; 16.5 µM in assay [7]. This compound showed a half-maximal activity concentration (AC50) on Thromboxane A2 receptor of over 30 µM.

On to `OC(CN1CCCCC1)c1cc(-c2ccccc2)on1` (centres undefined) [PERISOXAL], for which the AC50 was over 30 µM on Acetylcholinesterase; 3.82 µM on D(1A) dopamine receptor; over 30 µM at Estrogen receptor; 15.8 µM on Histamine H3 receptor; over 30 µM in [3]; over 30 µM in [4]. Besides, the concentration at half-maximal activity (AC50) at Mu-type opioid receptor is 27.4 µM; in assay [5], over 30 µM; in assay [6] it was 21.9 µM; in assay [7] it was over 30 µM; on Thromboxane A2 receptor it was over 30 µM.

For `CC(=O)OC1CN2CCC1CC2` (centres undefined) [ACECLIDINE], the AC50 (on Acetylcholinesterase; at D(1A) dopamine receptor; at Estrogen receptor; at Histamine H3 receptor; in assay [3]; in [4]) was over 30 µM in each case. The concentration at half-maximal activity (AC50) (at Mu-type opioid receptor; in [5]; in assay [6]; in assay [7]; on Thromboxane A2 receptor) was over 30 µM throughout.

For the compound `Cc1ccc(O)c([C@H](CCN(C(C)C)C(C)C)c2ccccc2)c1` [TOLTERODINE], the AC50 is over 30 µM on Acetylcholinesterase; over 30 µM in [1]; 24.7 µM in [2]; over 30 µM on D(1A) dopamine receptor; over 30 µM on Histamine H3 receptor; over 30 µM in assay [3]. For the same compound, the AC50 (in assay [4]; at Mu-type opioid receptor; in assay [6]; in assay [7]) was over 30 µM in each case.

Consider `O=C(OOC(=O)c1ccccc1)c1ccccc1` [BENZOYL PEROXIDE], for which the AC50 (at Acetylcholinesterase; in assay [1]; in [2]; at D(1A) dopamine receptor; on Estrogen receptor; at Histamine H3 receptor) was over 30 µM throughout. The AC50 (in [3]; in assay [4]; on Mu-type opioid receptor; in [5]; in assay [6]; in assay [7]) was over 30 µM throughout. Also, at Thromboxane A2 receptor, the AC50 is over 30 µM.

As for `O=NN(CCCl)C(=O)NCCCl` [CARMUSTINE], the AC50 (on Acetylcholinesterase; in [1]; in assay [2]; on D(1A) dopamine receptor; at Histamine H3 receptor; in assay [3]) was over 30 µM throughout. Further, the AC50 (in assay [4]; on Mu-type opioid receptor; in assay [6]; in assay [7]) was over 30 µM throughout.

Consider `C[C@@H](O)[C@H]1C(=O)N2C(C(=O)O)=C(S[C@@H]3CN[C@H](C(=O)Nc4cccc(C(=O)O)c4)C3)[C@H](C)[C@H]12`, for which the AC50 was over 30 µM on Acetylcholinesterase; over 30 µM on D(1A) dopamine receptor; 15.9 µM on Estrogen receptor; over 30 µM at Histamine H3 receptor; over 30 µM in [3]; over 30 µM in [4]. For the same compound, the AC50 on Mu-type opioid receptor was over 30 µM; in assay [5], 10.2 µM; in [6], over 30 µM; in [7] it was over 30 µM; at Thromboxane A2 receptor it was over 30 µM.

As for `CSCC[C@H](N)C(=O)O` [METHIONINE], the AC50 (on Acetylcholinesterase; at D(1A) dopamine receptor; on Estrogen receptor; on Histamine H3 receptor; in [3]; in assay [4]) was over 30 µM each time. The half-maximal activity concentration (AC50) (on Mu-type opioid receptor; in assay [5]; in assay [6]; in assay [7]; on Thromboxane A2 receptor) was over 30 µM throughout.

With `CC1(C)CCC(C)(C)c2cc(NC(=O)c3ccc(C(=O)O)cc3)ccc21` [TAMIBAROTENE], the half-maximal activity concentration (AC50) at Acetylcholinesterase was over 30 µM; in assay [1], over 30 µM; in assay [2], over 10 µM; at D(1A) dopamine receptor, over 30 µM; at Histamine H3 receptor, over 30 µM; in assay [3], over 30 µM. In addition, the AC50 in assay [4] is over 30 µM; at Mu-type opioid receptor it was over 30 µM; in assay [5], over 30 µM; in [6], over 30 µM; in assay [7] it was over 30 µM; at Thromboxane A2 receptor, 28.7 µM.
